Data as given in US12428403B2, “N-(heterocyclyl and heterocyclylalkyl)-3-benzylpyridin-2-amine derivatives as SSTR4 agonists” (Takeda Pharmaceutical Company Limited, priority 2020, dated 2025).

Target: SSTR4 (Homo sapiens, UniProt P31391)
Assay: cell-based
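Further: CHO-K1 cells overexpressing SSTR4, reduction of forskolin-driven cAMP after 30 min compound exposure at room temperature, cAMP read by HTRF LANCE Ultra kit.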
Procedure: This cell-based assay measures the ability of compounds to inhibit forskolin stimulated cAMP in CHO-K1 cells overexpressing SSTR4. CHO-K1 cells overexpressing SSTR4 (CHO-SSTR4) are purchased from DiscoveRx (product code 95-0059C2). The CHO-SSTR4 cells are maintained in F12K media with 10% Fetal Bovine Serum (Hyclone), 1% Pen/Strep (Life Technologies), and 800 μg/mL G418 (Life Technologies). To perform the assay, 3000 cells are plated per well in white 384-well plate (Corning 3570) in 50 complete media and the cells are allowed to attach for 16 hours in a 37° C., 5% CO2 incubator. The next day, the culture media is removed from the cells and the cells are washed (added then removed) with Krebs Ringer Buffer (ZenBio, KRB-1000 mL). Test compounds are suspended in DMSO and diluted in stimulation buffer: Krebs Ringer Buffer plus 0.5% BSA (Roche), 300 μM IBMX (Sigma), and 350 nM forskolin (Sigma). The cells are incubated in 10 μL compound/stimulation buffer for 30 minutes at room temperature. Cellular cAMP levels are detected with a HTRF LANCE Ultra cAMP kit (Perkin Elmer, catalog number TRF0264).
The assay is performed in accordance with the manufacturer's instructions. Five μL of diluted Eu-W8044 labeled streptavidin (dilution: 1:50 in cAMP Detection Buffer) is added to each well. Then 5 μL of diluted biotin cAMP (dilution: 1:150 in cAMP Detection Buffer) is added to each well. The plates are covered and allowed to incubate for 60 minutes at room temperature on a shaker. HTRF (665 nm/615 nm) is read on a Perkin Elmer ENVISION plate reader. The pEC50 values are generated using Activity Base for Screening Data Management.

Sequence of SSTR4 (P31391 whole entry): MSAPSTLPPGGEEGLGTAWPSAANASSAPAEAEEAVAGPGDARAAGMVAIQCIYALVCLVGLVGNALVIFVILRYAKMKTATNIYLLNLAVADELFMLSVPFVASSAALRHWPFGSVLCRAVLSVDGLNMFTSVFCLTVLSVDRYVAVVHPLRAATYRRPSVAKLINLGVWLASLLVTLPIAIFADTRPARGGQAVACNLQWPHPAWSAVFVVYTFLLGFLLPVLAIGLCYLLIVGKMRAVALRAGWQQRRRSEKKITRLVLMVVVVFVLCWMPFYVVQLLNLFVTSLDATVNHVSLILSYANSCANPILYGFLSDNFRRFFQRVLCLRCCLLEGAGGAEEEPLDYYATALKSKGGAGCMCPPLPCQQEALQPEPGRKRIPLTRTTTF

EC50 [nM] | Structure (SMILES)
661 | CC1CN(C)CCC1Nc1ncc(C(F)(F)F)nc1Cc1ccc(F)cc1 (mixture of isomers) [Example 91, N-(1,3-dimethylpiperidin-4-yl)-3-(4-fluorobenzyl)-5-(trifluoromethyl)pyrazin-2-amine]
398 | CC1CN(C)CCC1Nc1ncc(C(N)=O)cc1Cc1ccc(F)cc1 (mixture of isomers) [Example 102, 6-((1,3-dimethylpiperidin-4-yl)amino)-5-(4-fluorobenzyl)nicotinamide]
224 | CC[C@@H]1CN(C)CC[C@H]1Nc1ncc(C(=O)NC)nc1Cc1ccc(F)cc1 (racemic) [Example 36, 5-((trans-3-ethyl-1-methylpiperidin-4-yl)amino)-6-(4-fluorobenzyl)-N-methylpyrazine-2-carboxamide]
47.9 | Cc1nc(N[C@@H]2CCN(C)C[C@H]2C)c(Cc2ccc(F)cc2)nc1C(=O)N(C)C (racemic) [Example 47, 5-((trans-1,3-dimethylpiperidin-4-yl)amino)-6-(4-fluorobenzyl)-N,N,3-trimethylpyrazine-2-carboxamide]
741 | CC[C@@H]1CN(C)CC[C@H]1Nc1ncc(C(F)(F)F)nc1Cc1ccc(F)cc1 (racemic) [Example 95, N-(trans-3-ethyl-1-methylpiperidin-4-yl)-3-(4-fluorobenzyl)-5-(trifluoromethyl)pyrazin-2-amine]
219 | Fc1ccc(Cc2nccnc2N[C@@H]2CCNC[C@H]2F)cc1 (racemic) [Example 115, 3-(4-fluorobenzyl)-N-(trans-3-fluoropiperidin-4-yl)pyrazin-2-amine]
67.6 | Cc1cccc2nc(Cc3ccccc3)c(NCCN3CCC3)nc12 (single isomer, unassigned) [Example 2, N-(2-(azetidin-1-yl)ethyl)-3-benzyl-8-methylquinoxalin-2-amine]
457 | Cc1cccc2nc(NCCN3CCC3)c(Cc3ccccc3)nc12 (single isomer, unassigned) [Example 3, N-(2-(azetidin-1-yl)ethyl)-3-benzyl-5-methylquinoxalin-2-amine]
331 | COc1cccc(Cc2nc3c(C)cccc3nc2NCCN2CCC2)c1 (single isomer, unassigned) [Example 5, N-(2-(azetidin-1-yl)ethyl)-3-(3-methoxybenzyl)-5-methylquinoxalin-2-amine]
708 | C[C@@H](c1ccc(F)cc1)c1nc(C(N)=O)cnc1NCCN1CCCC1 (single isomer, unassigned) [Example 20]
331 | C[C@@H](c1ccc(F)cc1)c1nc(C(N)=O)cnc1N[C@@H]1CCN(C)C1 (single isomer, unassigned) [Example 31]
537 | CNC(=O)c1cnc(N[C@@H]2CCN(C)C2)c([C@@H](C)c2ccc(F)cc2)n1 (single isomer, unassigned) [Example 34]
1200 | CNC(=O)c1cnc(N[C@@H]2CCN(C)C2)c([C@H](C)c2ccc(F)cc2)n1 (single isomer, unassigned) [Example 35]
813 | C[C@H]1C[C@H](Nc2nccnc2Cc2ccc(F)cc2)CCN1C (single isomer, unassigned) [Example 113, N-(trans-1,2-dimethylpiperidin-4-yl)-3-(4-fluorobenzyl)pyrazin-2-amine]
575 | C[C@H]1C[C@@H](Nc2nccnc2Cc2ccc(F)cc2)CCN1C (single isomer, unassigned) [Example 114, N-(cis-1,2-dimethylpiperidin-4-yl)-3-(4-fluorobenzyl)pyrazin-2-amine]
575 | C[C@@H](c1ccc(F)cc1)c1nccnc1NCCN1CCCC1 (single isomer, unassigned) [Example 122]
120 | Cc1nnc([C@@H](C)c2ccc(F)cc2)c(N[C@@H]2CCN(C)C2)n1 (single isomer, unassigned) [Example 142]
224 | Cc1nnc([C@@H](C)c2ccc(F)cc2)c(N[C@H]2CCN(C)C2)n1 (single isomer, unassigned) [Example 147]
363 | Cc1nnc([C@@H](C)c2ccccc2)c(N[C@@H]2CCN(C)C2)n1 (single isomer, unassigned) [Example 150]
